In KR20130112248A, “피라졸로피리미딘 유도체 화합물, 이를 포함하는 산화질소 생성 억제용 조성물 및 뇌신경 질환 예방 및 치료용 약학적 조성물” (한국과학기술연구원, priority 2012, dated 2013):

Tested on: NO production in BV-2 cells [NO 생성; BV-2 세포]
Experiment: Nitric oxide (NO) quantification (nitrite, Griess reaction) in LPS-activated BV-2 cells
Type: cell-based
Conditions: LPS 0.2 ㎍/mL, 24 h co-treatment, nitrite by Griess at 540 nm; for activity at 20 µM / NO (% of LPS): 20 μM

CSc1nc(NC(C)c2ccc(C)cc2)c2cnn(-c3ccc(C)cc3)c2n1 (stereo not shown) [화합물 21i, 6-(메틸티오)-1-p-톨릴-N-(1-p-톨릴에틸)-1H-피라졸로[3,4-d]피리미딘-4-아민]
activity at 20 µM (Mus musculus, BV-2, 24 h): 57 ± 1%

COc1ccc(CNc2nc(SC)nc3c2cnn3-c2ccc(F)cc2)cc1 [화합물 20e, N-(4-메톡시벤질)-1-(4-플루오로페닐)-6-(메틸티오)-1H-피라졸로[3,4-d]피리미딘-4-아민]
activity at 20 µM (Mus musculus, BV-2, 24 h): 235%

CSc1nc(Cl)c2cnn(CCNC(=O)OC(C)(C)C)c2n1 [5d, 1-[N-t-Boc-(2-아미노에틸)]-4-클로로-6-(m메틸티오)피라졸로[3,4-d]피리미딘]
activity at 20 µM (Mus musculus, BV-2, 24 h): 48 ± 4%

COc1ccccc1CNc1nc(SC)nc2c1cnn2CCO [화합물 27i, 2-(4-(2-메톡시벤질아미노)-6-(메틸티오)-1H-피라졸로[3,4-d]피리미딘-1-일)에탄올]
activity at 20 µM (Mus musculus, BV-2, 24 h): 83.5 ± 3.1%

COCCNc1nc(NC(C)c2ccccc2)c2cnn(Cc3ccccc3)c2n1 (stereo not shown) [화합물 24h, 1-벤질-N6-(2-메톡시에틸)-N4-(1-페닐에틸)-1H-피라졸로[3,4-d]피리미딘-4,6-디아민]
activity at 20 µM (Mus musculus, BV-2, 24 h): 44 ± 4.2%

CC(Nc1nc(NCc2ccccc2)nc2c1cnn2Cc1ccccc1)c1ccccc1 (stereo not shown) [화합물 24e, N6,1-디벤질-N4-(1-페닐에틸)-1-벤질-1H-피라졸로[3,4-d]피리미딘-4,6-디아민]
activity at 20 µM (Mus musculus, BV-2, 24 h): 41 ± 16.3%

COc1ccccc1CCn1ncc2c(NCc3ccccc3OC)nc(SC)nc21 [화합물 19i, N-(2-메톡시벤질)-1-(2-메톡시펜에틸)-6-(메틸티오)-1H-피라졸로[3,4-d]피리미딘-4-아민]
activity at 20 µM (Mus musculus, BV-2, 24 h): 23.1 ± 0.5%

CSc1nc(NCc2ccc(F)cc2)c2cnn(-c3ccccc3)c2n1 [화합물 15e, 1-페닐-4-(4-플루오로벤질)아미노-6-(메틸티오)피라졸로[3,4-d]피리미딘]
activity at 20 µM (Mus musculus, BV-2, 24 h): 46 ± 10%

CSc1nc2[nH]ncc2c(=O)[nH]1 [8a, 6-(메틸티오)피라졸로[3,4-d]피리미딘-4-온]
activity at 30 µM (Mus musculus, BV-2, 24 h, 30 μM): 75 ± 0.9%

CSc1nc2c(cnn2-c2ccccc2)c(=O)[nH]1 [8b, 1-페닐-6-(메틸티오)피라졸로[3,4-d]피리미딘-4-온]
activity at 20 µM (Mus musculus, BV-2, 24 h): 75 ± 3%

CSc1nc(NC(C)c2ccccc2)c2cnn(Cc3ccccc3)c2n1 (stereo not shown) [화합물 16k, 1-벤질-6-(메틸티오)-N-(1-페닐에틸)-1H-피라졸로[3,4-d]피리미딘-4-아민]
NO (% of LPS) (1440 min): 31±0.5 % of LPS

CSc1nc(N2CCN(C)CC2)c2cn[nH]c2n1 [6n, 4-(4-메틸피페라지노)-6-(메틸티오)피라졸로[3,4-d]피리미딘]
activity at 20 µM (Mus musculus): 114 ± 9%

CCCCCCCCSc1nc(SC)nc2c1cnn2Cc1ccccc1 [화합물 16v, 1-벤질-6-(메틸티오)-4-(옥틸티오)-1H-피라졸로[3,4-d]피리미딘]
activity at 20 µM (Mus musculus, BV-2, 24 h): 95 ± 4%

CSc1nc(NCc2ccccc2Cl)c2cnn(CCO)c2n1 [화합물 27h, 2-(4-(2-클로로벤질아미노)-6-(메틸티오)-1H-피라졸로[3,4-d]피리미딘-1-일)에탄올]
activity at 20 µM (Mus musculus, BV-2, 24 h): 87.4 ± 1.2%

CSc1nc(NC(c2ccccc2)c2ccc(Cl)cc2)c2cnn(Cc3ccccc3)c2n1 (stereo not shown) [화합물 16y, 1-벤질-N-((4-클로로페닐)(페닐)메틸)-6-(메틸티오)-1H-피라졸로[3,4-d]피리미딘-4-아민]
activity at 20 µM (Mus musculus, BV-2, 24 h): 41 ± 0.9%

CSc1nc(NCCN2CCCCC2)c2cnn(-c3ccccc3)c2n1 [화합물 15g, 1-페닐-4-[2-(피페리딘-1-일)]에틸아미노-6-(메틸티오)피라졸로[3,4-d]피리미딘]
activity at 20 µM (Mus musculus, BV-2, 24 h): 64 ± 7%

C=CCn1ncc2c(Cl)nc(SC)nc21 [5b, 1-알릴-4-클로로-6-(메틸티오)피라졸로[3,4-d]피리미딘]
activity at 20 µM (Mus musculus, BV-2, 24 h): 63 ± 8%

CSc1nc(NC(C)c2ccc(C)cc2)c2cnn(Cc3ccccc3)c2n1 (stereo not shown) [화합물 16za, 1-벤질-6-(메틸티오)-N-(1-p-톨릴에틸)-1H-피라졸로[3,4-d]피리미딘-4-아민]
activity at 20 µM (Mus musculus, BV-2, 24 h): 40 ± 1.3%

CSc1nc(NCc2ccccc2)c2cnn(-c3ccccc3)c2n1 [화합물 15a, 1-페닐-4-벤질아미노-6-(메틸티오)피라졸로[3,4-d]피리미딘]
activity at 20 µM (Mus musculus, BV-2, 24 h): 53 ± 12%

CSc1nc(NCc2ccccc2C)c2cnn(-c3ccc(F)cc3)c2n1 [화합물 20c, N-(2-메틸벤질)-1-(4-프루오로페닐)-6-(메틸티오)-1H-피라졸로[3,4-d]피리미딘-4-아민]
activity at 20 µM (Mus musculus, BV-2, 24 h): 47 ± 8%

COc1ccccc1CNc1nc(SC)nc2c1cnn2-c1ccccc1 [화합물 15v, 1-페닐-4-(2-메톡시벤질)아미노-6-(메틸티오)피라졸로[3,4-d]피리미딘]
activity at 20 µM (Mus musculus, BV-2, 24 h): 41 ± 2%

CSc1nc(Cl)c2c(-c3ccccc3)nn(-c3ccccc3)c2n1 [화합물 30a, 1-페닐-3-페닐-4-클로로-6-(메틸티오)피라졸로[3,4-d]피리미딘]
activity at 20 µM (Mus musculus, BV-2, 24 h): 13 ± 18%

CCCCNc1nc(SC)nc2[nH]ncc12 [6e, 4-n-뷰틸아미노-6-(메틸티오)피라졸로[3,4-d]피리미딘]
activity at 20 µM (Mus musculus, BV-2, 24 h): 83 ± 9%

2-(4-(1-페닐에틸아미노)-6-(메틸티오)-1H-피라졸로[3,4-d]피리미딘-1-일)에틸카바메이트 [화합물 14g]
NO (% of LPS): 33.5±1.3 % of LPS

COc1ccccc1CNc1nc([S+](C)[O-])nc2c1cnn2-c1ccc(F)cc1 (stereo not shown) [화합물 22e, N-(2-메톡시벤질)-1-(4-플루오로페닐)-6-(메틸설파이닐)-1-페닐-1H-피라졸로[3,4-d]피리미딘-4-아민]
activity at 20 µM (Mus musculus, BV-2, 24 h): 31 ± 6.9%

1-(N-t-Boc-아미노에틸)-4-(1-하이드록시에틸)아미노-6-(메틸티오)피라졸로[3,4-d]피리미딘 [화합물 14b]
NO (% of LPS): 102±4 % of LPS

CSc1nc(NC(C)c2ccc(C)cc2)c2cnn(-c3ccccc3)c2n1 (stereo not shown) [화합물 15zb, 6-(메틸티오)-1-페닐-N-(1-p-톨릴에틸)-1H-피라졸로[3,4-d]피리미딘-4-아민]
activity at 20 µM (Mus musculus, BV-2, 24 h): 51 ± 0.1%

CSc1nc(NCc2ccc(Cl)cc2)c2cnn(Cc3ccccc3)c2n1 [화합물 16zd, N-(4-클로로벤질)-1-벤질-6-(메틸티오)-1H-피라졸로[3,4-d]피리미딘-4-아민]
activity at 20 µM (Mus musculus, BV-2, 24 h): 46 ± 1.9%
